Source: PubChem BioAssay AID248 (DTP/NCI, 2004)
“And” between values parts separate entries of the source, which are not always exact repeats. Identical values can stand only once. Toxic doses and inconclusive results are not listed. No stated cut-off is given here; in the data, active means T/C of 150% or more; inactive means T/C below 125%.

System: L1210 leukemia ip in BDF1 mice, survival T/C
Experiment: NCI In Vivo Anticancer Drug Screen. Data for tumor model L1210 Leukemia (intraperitoneal) in B6D2F1 (BDF1) mice
Conditions: endpoint: mean survival time, higher = longer survival
Summary of the method: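 Transplanted-tumor mice were given test agent; controls received vehicle only. Survival readings from the two groups were divided (treated over control).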

[1] = dose: 100.0 mg/kg/injection, schedule: Q01DX009 (ip), vehicle: saline with Tween-80
[2] = dose: 100.0 mg/kg/injection, schedule: Q04DX003 (ip), vehicle: Klucel (hydroxypropylcellulose) (HPC)
[3] = dose: 200.0 mg/kg/injection, schedule: Q04DX003 (ip), vehicle: Klucel (hydroxypropylcellulose) (HPC)
[4] = dose: 400.0 mg/kg/injection, schedule: Q04DX003 (ip), vehicle: Klucel (hydroxypropylcellulose) (HPC)
[5] = dose: 100.0 mg/kg/injection, schedule: Q04DX003 (ip), vehicle: saline with Tween-80
[6] = dose: 200.0 mg/kg/injection, schedule: Q04DX003 (ip), vehicle: saline with Tween-80

Measured: T/C

CC(=O)N(C)c1ccc(S(=O)(=O)Cl)cc1
inactive: [1] 101 % of control | dose: 200.0 mg/kg/injection, schedule: Q01DX009 (ip), vehicle: saline with Tween-80 95 % of control

O=C(NCCCl)NC(Cc1ccccc1)Cc1ccccc1
inactive: [2] 95 % of control | [3] 91 % of control | [4] 95 % of control

CC(=O)Nc1nc(Cl)c2ncn(C3CC(OC(=O)c4ccc(C)cc4)C(COC(=O)c4ccc(C)cc4)O3)c2n1 (stereo unspecified)
inactive: dose: 100.0 mg/kg/injection, schedule: Q01DX005 (ip), vehicle: saline 109 % of control and 114 % of control | dose: 100.0 mg/kg/injection, schedule: Q01DX009 (ip), vehicle: saline 102 % of control | dose: 200.0 mg/kg/injection, schedule: Q01DX005 (ip), vehicle: saline 103 % of control and 104 % of control | dose: 200.0 mg/kg/injection, schedule: Q01DX009 (ip), vehicle: saline 102 % of control | dose: 400.0 mg/kg/injection, schedule: Q01DX009 (ip), vehicle: saline 107 % of control

CCOC(=O)c1cnc2ccc(OC)cc2c1
inactive: dose: 50.0 mg/kg/injection, schedule: Q01DX009 (ip), vehicle: saline + alcohol 111 % of control | dose: 100.0 mg/kg/injection, schedule: Q01DX009 (ip), vehicle: saline + alcohol 93 % of control | dose: 100.0 mg/kg/injection, schedule: Q04DX003 (ip), vehicle: saline 96 % of control | dose: 200.0 mg/kg/injection, schedule: Q01DX009 (ip), vehicle: saline + alcohol 98 % of control | dose: 200.0 mg/kg/injection, schedule: Q04DX003 (ip), vehicle: saline 105 % of control | dose: 400.0 mg/kg/injection, schedule: Q01DX009 (ip), vehicle: saline + alcohol 93 % of control | dose: 400.0 mg/kg/injection, schedule: Q04DX003 (ip), vehicle: saline 94 % of control

CC(C)(SCc1ccc([N+](=O)[O-])cc1)C(N)C(=O)O (stereo unspecified)
inactive: [2] 101 % of control | [3] 100 % of control | [4] 91 % of control

CC[C@]1(O)C[C@H](OC2CC(N(C)C)C(OC3CC(O)C(O)C(C)O3)C(C)O2)c2c(cc3c(c2O)C(=O)c2c(O)ccc(O)c2C3=O)[C@H]1C(=O)OC (stereo partly specified)
inactive: dose: 0.2 mg/kg/injection, schedule: Q04DX002 (ip), vehicle: Klucel (hydroxypropylcellulose) (HPC) 104 % of control | dose: 0.4 mg/kg/injection, schedule: Q01DX001 (ip), vehicle: Klucel (hydroxypropylcellulose) (HPC) 108 % of control | dose: 0.4 mg/kg/injection, schedule: Q04DX002 (ip), vehicle: Klucel (hydroxypropylcellulose) (HPC) 114 % of control | dose: 0.8 mg/kg/injection, schedule: Q01DX001 (ip), vehicle: Klucel (hydroxypropylcellulose) (HPC) 105 % of control | dose: 0.8 mg/kg/injection, schedule: Q04DX002 (ip), vehicle: Klucel (hydroxypropylcellulose) (HPC) 107 % of control | dose: 1.6 mg/kg/injection, schedule: Q01DX001 (ip), vehicle: Klucel (hydroxypropylcellulose) (HPC) 111 % of control | dose: 1.6 mg/kg/injection, schedule: Q04DX002 (ip), vehicle: Klucel (hydroxypropylcellulose) (HPC) 107 % of control | dose: 3.2 mg/kg/injection, schedule: Q01DX001 (ip), vehicle: Klucel (hydroxypropylcellulose) (HPC) 116 % of control | dose: 6.4 mg/kg/injection, schedule: Q01DX001 (ip), vehicle: Klucel (hydroxypropylcellulose) (HPC) 120 % of control

c1cc2c3c(c1)CCC3CCC2 (stereo unspecified)
inactive: [5] 90 % of control | [6] 95 % of control | dose: 400.0 mg/kg/injection, schedule: Q04DX003 (ip), vehicle: saline with Tween-80 97 % of control

Cc1c(Cl)cccc1NC(=O)Oc1cc(Cl)c(Cl)cc1Cl
inactive: dose: 50.0 mg/kg/injection, schedule: Q01DX009 (ip), vehicle: saline with Tween-80 92 % of control | [1] 96 % of control | [5] 95 % of control | [6] 106 % of control

CCOC(=O)CC1C(=O)CCCC1=O
inactive: dose: 100.0 mg/kg/injection, schedule: Q01DX001 (ip), vehicle: saline with Tween-80 98 % of control | dose: 200.0 mg/kg/injection, schedule: Q01DX001 (ip), vehicle: saline with Tween-80 104 % of control | dose: 400.0 mg/kg/injection, schedule: Q01DX001 (ip), vehicle: saline with Tween-80 95 % of control

O=C1NC(=O)C(=Cc2ccc(N(CCCl)CCCl)cc2)C(=O)N1
inactive: dose: 100.0 mg/kg/injection, schedule: Q01DX Z (ip), vehicle: methylcellulose (MC) 102 % of control | dose: 200.0 mg/kg/injection, schedule: Q01DX Z (ip), vehicle: methylcellulose (MC) 121 % of control
